Source: patent US20030171329A1, “Stable compositions comprising tezacitabine” (priority 2002, published 2003)

Test: Stability of FMdC at various concentrations in 100 mM sodium phosphate pH 9 (Example 3, HPLC)
Format: physicochemical
Experimental: In this study the stability of FMdC at various concentrations in 100 mM sodium phosphate pH 9 was studied. FMdC solutions were made up and pH adjusted to target with sodium hydroxide. Solution samples were placed in stoppered glass vials and stored at the various temperatures. […] Flow rate was 1.0 mL/min. FMdC solution samples were diluted in mobile phase to a nominal FMdC concentration of 80 μg/mL, then injected onto the column in a volume of 10 μL. Detection was by UV at 268 nm.

[1] = FMdC 2 mg/mL, 100 mM sodium phosphate pH 9, 25° C., 0 mon
[2] = FMdC 2 mg/mL, 100 mM sodium phosphate pH 9, 25° C., 6 mon
[3] = FMdC 2 mg/mL, 100 mM sodium phosphate pH 9, 25° C., 9 mon
[4] = FMdC 2 mg/mL, 100 mM sodium phosphate pH 9, 25° C., 20 mon
[5] = FMdC 2 mg/mL, 100 mM sodium phosphate pH 9, 40° C., 0 mon
[6] = FMdC 2 mg/mL, 100 mM sodium phosphate pH 9, 40° C., 3 mon
[7] = FMdC 2 mg/mL, 100 mM sodium phosphate pH 9, 40° C., 6 mon
[8] = FMdC 2 mg/mL, 100 mM sodium phosphate pH 9, 40° C., 9 mon
[9] = FMdC 2 mg/mL, 100 mM sodium phosphate pH 9, 50° C., 0 mon
[10] = FMdC 2 mg/mL, 100 mM sodium phosphate pH 9, 50° C., 0.5 mon
[11] = FMdC 2 mg/mL, 100 mM sodium phosphate pH 9, 50° C., 1.0 mon
[12] = FMdC 2 mg/mL, 100 mM sodium phosphate pH 9, 50° C., 2.0 mon
[13] = FMdC 2 mg/mL, 100 mM sodium phosphate pH 9, 50° C., 3.0 mon
[14] = FMdC 10 mg/mL, 100 mM sodium phosphate pH 9, 25° C., 0 mon
[15] = FMdC 10 mg/mL, 100 mM sodium phosphate pH 9, 25° C., 2.8 mon
[16] = FMdC 10 mg/mL, 100 mM sodium phosphate pH 9, 25° C., 4.0 mon
[17] = FMdC 10 mg/mL, 100 mM sodium phosphate pH 9, 25° C., 6.5 mon
[18] = FMdC 10 mg/mL, 100 mM sodium phosphate pH 9, 25° C., 7.9 mon
[19] = FMdC 10 mg/mL, 100 mM sodium phosphate pH 9, 25° C., 16 mon
[20] = FMdC 10 mg/mL, 100 mM sodium phosphate pH 9, 25° C., 23 mon
[21] = FMdC 10 mg/mL, 100 mM sodium phosphate pH 9, 40° C., 0 mon
[22] = FMdC 10 mg/mL, 100 mM sodium phosphate pH 9, 40° C., 2.0 mon
[23] = FMdC 10 mg/mL, 100 mM sodium phosphate pH 9, 40° C., 3.0 mon
[24] = FMdC 10 mg/mL, 100 mM sodium phosphate pH 9, 40° C., 3.7 mon
[25] = FMdC 10 mg/mL, 100 mM sodium phosphate pH 9, 40° C., 4.1 mon
[26] = FMdC 10 mg/mL, 100 mM sodium phosphate pH 9, 50° C., 0 mon
[27] = FMdC 10 mg/mL, 100 mM sodium phosphate pH 9, 50° C., 0.3 mon
[28] = FMdC 10 mg/mL, 100 mM sodium phosphate pH 9, 50° C., 0.7 mon
[29] = FMdC 10 mg/mL, 100 mM sodium phosphate pH 9, 50° C., 0.9 mon
[30] = FMdC 10 mg/mL, 100 mM sodium phosphate pH 9, 50° C., 1.4 mon
[31] = FMdC 10 mg/mL, 100 mM sodium phosphate pH 9, 50° C., 2.1 mon

Nc1ccn([C@@H]2O[C@H](CO)[C@@H](O)/C2=C\F)c(=O)n1 [FMdC, (E)-2′-deoxy-2′-(fluoromethylene)cytidine]
stability in words (25° C., 2 and 10 mg/mL in 100 mM sodium phosphate pH 9): stable for over eighteen months
FMdC [1]: 100.0 % of initial
pH [1]: 9.18
FMdC [2]: 100.0 % of initial
pH [2]: 9.00
FMdC [3]: 100.5 % of initial
pH [3]: 9.03
FMdC [4]: 100.0 % of initial
pH [4]: 9.00
FMdC [5]: 100.0 % of initial
pH [5]: 9.18
FMdC [6]: 97.0 % of initial
pH [6]: 8.89
FMdC [7]: 92.5 % of initial
pH [7]: 8.55
FMdC [8]: 88.4 % of initial
pH [8]: 8.44
FMdC [9]: 100.0 % of initial
pH [9]: 9.18
FMdC [10]: 100.0 % of initial
pH [10]: 8.84
FMdC [11]: 97.4 % of initial
pH [11]: 8.84
FMdC [12]: 88.7 % of initial
pH [12]: 8.39
FMdC [13]: 80.4 % of initial
pH [13]: 8.16
FMdC [14]: 100.0 % of initial
pH [14]: 9.29
FMdC [15]: 98.9 % of initial
pH [15]: 9.25
FMdC [16]: 100.4 % of initial
pH [16]: 9.17
FMdC [17]: 99.3 % of initial
pH [17]: 9.09
FMdC [18]: 98.1 % of initial
pH [18]: 9.06
FMdC [19]: 97.3 % of initial
pH [19]: 8.73
FMdC [20]: 97.1 % of initial
pH [20]: 8.74
FMdC [21]: 100.0 % of initial
pH [21]: 9.29
FMdC [22]: 98.1 % of initial
pH [22]: 8.60
FMdC [23]: 95.8 % of initial
pH [23]: 8.40
FMdC [24]: 96.9 % of initial
pH [24]: 8.19
FMdC [25]: 94.9 % of initial
pH [25]: 8.08
FMdC [26]: 100.0 % of initial
pH [26]: 9.29
FMdC [27]: 99.6 % of initial
pH [27]: 8.75
FMdC [28]: 94.4 % of initial
pH [28]: 8.24
FMdC [29]: 89.5 % of initial
pH [29]: 7.91
FMdC [30]: 82.0 % of initial
pH [30]: 7.52
FMdC [31]: 67.4 % of initial
pH [31]: 7.01
